Measured values: US10538555B2, “Macrocyclic inhibitors of the PD-1/PD-L1 and CD80(B7-1)/PD-L1 protein/protein interactions” (BRISTOL-MYERS SQUIBB COMPANY, priority 2014, dated 2020)
*1 amine or outer side, *2 acyl side, *3 side chain or, on linkers, in order; H or OH if unused. Where a SMILES comes first, the peptide text is derived from it. Bridges are numbered along the chain shown (N, C = ends). [ ]: non-standard residue; d: D form. ξ: configuration not given here. Phe(3,4,5-F3) = N[C@@H](Cc1cc(F)c(F)c(F)c1)C(=O)O; Phe(3,4-F2) = N[C@@H](Cc1ccc(F)c(F)c1)C(=O)O; d(cisHyp) = O=C(O)[C@H]1C[C@@H](O)CN1; NMeF = CN[C@@H](Cc1ccccc1)C(=O)O; X1 = O=C([C@H]1COCCN1[*:1])[*:2]; dHyp = O=C(O)[C@H]1C[C@H](O)CN1; NMeNle = CCCC[C@H](NC)C(=O)O; ξY = NC(Cc1ccc(O)cc1)C(=O)O; Orn = NCCC[C@H](N)C(=O)O; Dab = NCC[C@H](N)C(=O)O; Dap = NC[C@H](N)C(=O)O

Molecular target: T1, Human PD-L1/PD-1 (Homo sapiens, UniProt Q9NZQ7)
T1 construct: TVMV protease cleavage site (C); made in house; host or cells: HEK293T cells
T1 sequence (Q9NZQ7 with tags, fused parts or gaps): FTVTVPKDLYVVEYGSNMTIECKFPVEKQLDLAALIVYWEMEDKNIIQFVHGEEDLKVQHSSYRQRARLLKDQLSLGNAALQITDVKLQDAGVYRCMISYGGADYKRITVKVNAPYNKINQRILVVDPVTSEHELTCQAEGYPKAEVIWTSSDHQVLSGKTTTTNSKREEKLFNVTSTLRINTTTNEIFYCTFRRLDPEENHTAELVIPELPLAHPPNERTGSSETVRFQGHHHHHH
Assay: HTRF Human PD-L1/PD-1 binding assay (PD-1-Ig/PD-L1-His)
Conditions: PD-L1-His 10 nM, PD-1-Ig 20 nM; class symbol; read-out: HTRF Human PD-L1/PD-1 Binding Assay IC50 Range
Outline: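 Compound preincubated 15 min with PD-L1-His (10 nM final), then PD-1-Ig (20 nM final) added for 15 min in dPBS with 0.1% BSA and 0.05% Tween-20. Detection by Eu-cryptate anti-Ig (1 nM) and APC anti-His (20 nM) after 30 min; 665/620 nm HTRF ratio. Proteins expressed in HEK293T.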

Compound	IC50 [nM]
CCCC[C@H]1C(=O)N2C[C@H](O)C[C@@H]2C(=O)N[C@@H](CC(=O)O)C(=O)N[C@@H](C(C)C)C(=O)N(C)[C@@H](Cc2ccccc2)C(=O)N[C@@H](CC(N)=O)C(=O)N2C[C@H](O)C[C@@H]2C(=O)N[C@@H](Cc2c[nH]c3ccccc23)C(=O)NC(Cc2ccc(O)cc2)C(=O)N[C@@H](CCC(=O)O)C(=O)N[C@H](C(=O)NCC(N)=O)CSCC(=O)N[C@@H](Cc2ccc(F)c(F)c2)C(=O)N(C)[C@@H](Cc2ccccc2)C(=O)N1C (some centres unmarked) [Example 9317] ({CH2CO}-[Phe(3,4-F2)][NMeF][NMeNle][d(cisHyp)]DV[NMeF]N[d(cisHyp)]W[ξY]ECG-NH2; thioether N-13)	1 to 9.9
CCCC[C@H]1C(=O)N2C[C@H](O)C[C@@H]2C(=O)N[C@@H](CC(=O)O)C(=O)N[C@@H](C(C)C)C(=O)N(C)[C@@H](Cc2ccccc2)C(=O)N[C@@H](CCCCN)C(=O)N2C[C@H](O)C[C@@H]2C(=O)N[C@@H](Cc2c[nH]c3ccccc23)C(=O)N[C@@H](Cc2ccc(O)cc2)C(=O)N[C@@H](CC(C)C)C(=O)N[C@H](C(=O)NCC(N)=O)CSCC(=O)N[C@@H](Cc2ccc(F)c(F)c2)C(=O)N(C)[C@@H](Cc2ccccc2)C(=O)N1C [Example 9318] ({CH2CO}-[Phe(3,4-F2)][NMeF][NMeNle][d(cisHyp)]DV[NMeF]K[d(cisHyp)]WYLCG-NH2; thioether N-13)	1 to 9.9
CCCC[C@H]1C(=O)N2C[C@H](O)C[C@@H]2C(=O)N[C@@H](CC(=O)O)C(=O)N[C@@H](C(C)C)C(=O)N(C)[C@@H](Cc2ccccc2)C(=O)N[C@@H](CC(=O)O)C(=O)N2C[C@H](O)C[C@@H]2C(=O)N[C@@H](Cc2c[nH]c3ccccc23)C(=O)N[C@@H](Cc2ccc(O)cc2)C(=O)N[C@@H](CC(C)C)C(=O)N[C@H](C(=O)NCC(N)=O)CSCC(=O)N[C@@H](Cc2cc(F)c(F)c(F)c2)C(=O)N(C)[C@@H](Cc2ccccc2)C(=O)N1C [Example 9319] ({CH2CO}-[Phe(3,4,5-F3)][NMeF][NMeNle][d(cisHyp)]DV[NMeF]D[d(cisHyp)]WYLCG-NH2; thioether N-13)	1 to 9.9
CCCC[C@H]1C(=O)N2C[C@H](O)C[C@@H]2C(=O)N[C@@H](CC(=O)O)C(=O)N[C@@H](C(C)C)C(=O)N(C)[C@@H](Cc2ccccc2)C(=O)N[C@@H](CCC(N)=O)C(=O)N2C[C@H](O)C[C@@H]2C(=O)N[C@@H](Cc2c[nH]c3ccccc23)C(=O)N[C@@H](Cc2ccc(O)cc2)C(=O)N[C@@H](CC(C)C)C(=O)N[C@H](C(=O)NCC(N)=O)CSCC(=O)N[C@@H](Cc2cc(F)c(F)c(F)c2)C(=O)N(C)[C@@H](Cc2ccccc2)C(=O)N1C [Example 9320] ({CH2CO}-[Phe(3,4,5-F3)][NMeF][NMeNle][d(cisHyp)]DV[NMeF]Q[d(cisHyp)]WYLCG-NH2; thioether N-13)	1 to 9.9
CCCC[C@H]1C(=O)N2C[C@@H](O)C[C@@H]2C(=O)N[C@@H](CC(=O)O)C(=O)N[C@@H](C(C)C)C(=O)N(C)[C@@H](Cc2ccccc2)C(=O)N[C@@H](CCC(=O)O)C(=O)N2CCOC[C@@H]2C(=O)N[C@@H](Cc2c[nH]c3ccccc23)C(=O)N[C@@H](Cc2ccc(O)cc2)C(=O)N[C@@H](CCCN)C(=O)N[C@H](C(=O)NCC(N)=O)CSCC(=O)N[C@@H](Cc2cc(F)c(F)c(F)c2)C(=O)N(C)[C@@H](Cc2ccccc2)C(=O)N1C [Example 9321] ({CH2CO}-[Phe(3,4,5-F3)][NMeF][NMeNle][dHyp]DV[NMeF]E[X1]WY[Orn]CG-NH2; thioether N-13)	1 to 9.9
CCCC[C@H]1C(=O)N2C[C@H](O)C[C@@H]2C(=O)N[C@@H](CC(=O)O)C(=O)N[C@@H](C(C)C)C(=O)N(C)[C@@H](Cc2ccccc2)C(=O)N[C@@H](Cc2ccc(O)cc2)C(=O)N2C[C@H](O)C[C@@H]2C(=O)N[C@@H](Cc2c[nH]c3ccccc23)C(=O)N[C@@H](Cc2ccc(O)cc2)C(=O)N[C@@H](CCCCN)C(=O)N[C@H](C(=O)NCC(N)=O)CSCC(=O)N[C@@H](Cc2cc(F)c(F)c(F)c2)C(=O)N(C)[C@@H](Cc2ccccc2)C(=O)N1C [Example 9322] ({CH2CO}-[Phe(3,4,5-F3)][NMeF][NMeNle][d(cisHyp)]DV[NMeF]Y[d(cisHyp)]WYKCG-NH2; thioether N-13)	1 to 9.9
CCCC[C@H]1C(=O)N2C[C@H](O)C[C@@H]2C(=O)N[C@@H](CC(=O)O)C(=O)N[C@@H](C(C)C)C(=O)N(C)[C@@H](Cc2ccccc2)C(=O)N[C@@H](Cc2ccc(O)cc2)C(=O)N2C[C@H](O)C[C@@H]2C(=O)N[C@@H](Cc2c[nH]c3ccccc23)C(=O)N[C@@H](Cc2ccc(O)cc2)C(=O)N[C@@H](CCCN)C(=O)N[C@H](C(=O)NCC(N)=O)CSCC(=O)N[C@@H](Cc2cc(F)c(F)c(F)c2)C(=O)N(C)[C@@H](Cc2ccccc2)C(=O)N1C [Example 9323] ({CH2CO}-[Phe(3,4,5-F3)][NMeF][NMeNle][d(cisHyp)]DV[NMeF]Y[d(cisHyp)]WY[Orn]CG-NH2; thioether N-13)	1 to 9.9
CCCC[C@H]1C(=O)N2C[C@H](O)C[C@@H]2C(=O)N[C@@H](CC(=O)O)C(=O)N[C@@H](C(C)C)C(=O)N(C)[C@@H](Cc2ccccc2)C(=O)N[C@@H](Cc2ccc(O)cc2)C(=O)N2C[C@H](O)C[C@@H]2C(=O)N[C@@H](Cc2c[nH]c3ccccc23)C(=O)N[C@@H](Cc2ccc(O)cc2)C(=O)N[C@@H](CCN)C(=O)N[C@H](C(=O)NCC(N)=O)CSCC(=O)N[C@@H](Cc2cc(F)c(F)c(F)c2)C(=O)N(C)[C@@H](Cc2ccccc2)C(=O)N1C [Example 9324] ({CH2CO}-[Phe(3,4,5-F3)][NMeF][NMeNle][d(cisHyp)]DV[NMeF]Y[d(cisHyp)]WY[Dab]CG-NH2; thioether N-13)	1 to 9.9
CCCC[C@H]1C(=O)N2C[C@H](O)C[C@@H]2C(=O)N[C@@H](CC(=O)O)C(=O)N[C@@H](C(C)C)C(=O)N(C)[C@@H](Cc2ccccc2)C(=O)N[C@@H](Cc2ccc(O)cc2)C(=O)N2C[C@H](O)C[C@@H]2C(=O)N[C@@H](Cc2c[nH]c3ccccc23)C(=O)N[C@@H](Cc2ccc(O)cc2)C(=O)N[C@@H](CN)C(=O)N[C@H](C(=O)NCC(N)=O)CSCC(=O)N[C@@H](Cc2cc(F)c(F)c(F)c2)C(=O)N(C)[C@@H](Cc2ccccc2)C(=O)N1C [Example 9325] ({CH2CO}-[Phe(3,4,5-F3)][NMeF][NMeNle][d(cisHyp)]DV[NMeF]Y[d(cisHyp)]WY[Dap]CG-NH2; thioether N-13)	1 to 9.9
CCCC[C@H]1C(=O)N2C[C@H](O)C[C@@H]2C(=O)N[C@@H](CC(=O)O)C(=O)N[C@@H](C(C)C)C(=O)N(C)[C@@H](Cc2ccccc2)C(=O)N[C@@H](Cc2ccc(O)cc2)C(=O)N2C[C@H](O)C[C@@H]2C(=O)N[C@@H](Cc2c[nH]c3ccccc23)C(=O)N[C@@H](Cc2ccc(O)cc2)C(=O)N[C@@H](CCC(=O)O)C(=O)N[C@H](C(=O)NCC(N)=O)CSCC(=O)N[C@@H](Cc2cc(F)c(F)c(F)c2)C(=O)N(C)[C@@H](Cc2ccccc2)C(=O)N1C [Example 9326] ({CH2CO}-[Phe(3,4,5-F3)][NMeF][NMeNle][d(cisHyp)]DV[NMeF]Y[d(cisHyp)]WYECG-NH2; thioether N-13)	10 to 99.9
CCCC[C@H]1C(=O)N2C[C@H](O)C[C@@H]2C(=O)N[C@@H](CC(=O)O)C(=O)N[C@@H](C(C)C)C(=O)N(C)[C@@H](Cc2ccccc2)C(=O)N[C@@H](Cc2ccc(O)cc2)C(=O)N2C[C@H](O)C[C@@H]2C(=O)N[C@@H](Cc2c[nH]c3ccccc23)C(=O)N[C@@H](Cc2ccc(O)cc2)C(=O)N[C@@H](CC(=O)O)C(=O)N[C@H](C(=O)NCC(N)=O)CSCC(=O)N[C@@H](Cc2cc(F)c(F)c(F)c2)C(=O)N(C)[C@@H](Cc2ccccc2)C(=O)N1C [Example 9327] ({CH2CO}-[Phe(3,4,5-F3)][NMeF][NMeNle][d(cisHyp)]DV[NMeF]Y[d(cisHyp)]WYDCG-NH2; thioether N-13)	10 to 99.9
CCCC[C@H]1C(=O)N2C[C@H](O)C[C@@H]2C(=O)N[C@@H](CC(=O)O)C(=O)N[C@@H](C(C)C)C(=O)N(C)[C@@H](Cc2ccccc2)C(=O)N[C@@H](Cc2ccc(O)cc2)C(=O)N2C[C@H](O)C[C@@H]2C(=O)N[C@@H](Cc2c[nH]c3ccccc23)C(=O)N[C@@H](Cc2ccc(O)cc2)C(=O)N[C@@H](CCC(N)=O)C(=O)N[C@H](C(=O)NCC(N)=O)CSCC(=O)N[C@@H](Cc2cc(F)c(F)c(F)c2)C(=O)N(C)[C@@H](Cc2ccccc2)C(=O)N1C [Example 9328] ({CH2CO}-[Phe(3,4,5-F3)][NMeF][NMeNle][d(cisHyp)]DV[NMeF]Y[d(cisHyp)]WYQCG-NH2; thioether N-13)	10 to 99.9
CCCC[C@H]1C(=O)N2C[C@H](O)C[C@@H]2C(=O)N[C@@H](CC(=O)O)C(=O)N[C@@H](C(C)C)C(=O)N(C)[C@@H](Cc2ccccc2)C(=O)N[C@@H](Cc2ccc(O)cc2)C(=O)N2C[C@H](O)C[C@@H]2C(=O)N[C@@H](Cc2c[nH]c3ccccc23)C(=O)N[C@@H](Cc2ccc(O)cc2)C(=O)N[C@@H](CC(N)=O)C(=O)N[C@H](C(=O)NCC(N)=O)CSCC(=O)N[C@@H](Cc2cc(F)c(F)c(F)c2)C(=O)N(C)[C@@H](Cc2ccccc2)C(=O)N1C [Example 9329] ({CH2CO}-[Phe(3,4,5-F3)][NMeF][NMeNle][d(cisHyp)]DV[NMeF]Y[d(cisHyp)]WYNCG-NH2; thioether N-13)	1 to 9.9
CCCC[C@H]1C(=O)N2C[C@H](O)C[C@@H]2C(=O)N[C@@H](CC(=O)O)C(=O)N[C@@H](C(C)C)C(=O)N(C)[C@@H](Cc2ccccc2)C(=O)N[C@@H](CCC(=O)O)C(=O)N2C[C@H](O)C[C@@H]2C(=O)N[C@@H](Cc2c[nH]c3ccccc23)C(=O)N[C@@H](Cc2ccc(O)cc2)C(=O)N[C@@H](CC(C)C)C(=O)N[C@H](C(=O)NCC(N)=O)CSCC(=O)N[C@@H](Cc2cc(F)c(F)c(F)c2)C(=O)N(C)[C@@H](Cc2ccccc2)C(=O)N1C [Example 9330] ({CH2CO}-[Phe(3,4,5-F3)][NMeF][NMeNle][d(cisHyp)]DV[NMeF]E[d(cisHyp)]WYLCG-NH2; thioether N-13)	10 to 99.9
